Laboratory results reported in patent US4808609A, “Amino-(hydroxy)alkoxy-4-phenylpropyl indoles having antiarrythmic activity” (Roussel Uclaf, priority 1985, dated 1989).

How the values were obtained:
mice = assay: Study of the acute toxicity (oral, mice); format: in vivo
Description: The lethal doses LD0 were evaluated for the different compounds tested after oral administration to mice.

Caudal arteries of rats = assay: Anti-calcic activity in vitro (inhibition of K+ depolarization contraction of caudal arteries of rats); format: cell-based; conditions: rat caudal artery spirals, 100 mM K+, Ca2+ 0.1 to 3.0 mM, 37° C.; read-out: IC 50 (inhibits by 50% the contraction due to the K+ ions)
Description: Caudal arteries of rats were cut into spirals and attached to tension indicators and were kept in tanks of 25 ml of Krebs buffer-sodium bicarbonate (NaCl: 120.8 mM, KCl: 5.9 mM, MgCl2 : 1.2 mM, NaH2 PO4 : 1.2 mM, NaHCO3 : 15.5 mM, glucose: 12.6 mM) at 37° C. gassed with a mixture of O2 : 95%--CO2 --5%. The preparations were depolarized by a buffer solution with a concentration of 100 mM of K^+ ions (NaCl: 26.7 mM, KCl: 100 mM, MgCl2 1.2 mM, NaH2 PO4 : 1.3 mM, NaHCO3 : 15.5 mM, glucose: 12.6 mM).
250 μl of solutions of calcium chloride were added so that an increasing range of concentrations of Ca^2+ ions going from 0.1 to 3.0 mM was obtained. The contractions of the arteries were recorded and in this way a control range was established. The operation was repeated with the range of Ca^2+ ions every 15 minutes, and the preparation was washed four times after each range. When a stable response was obtained, the operation was carried out with the ranges of Ca^2+ ions in the presence of different concentrations of the product under test until a stable response was obtained.
The contractions of the arteries depend on the entry of the Ca^2+ ions into the cells of the smooth muscles and they are caused by the depolarization of the smooth muscle by the K^+ ions by the action of the noradrenaline liberated at the presynaptic level. By repeating the operation with the arteries denervated by the action of 6-OH dopamine, the action due to the noradrenaline alone is suppressed.
The results are expressed in IC 50 (inhibiting concentration 50) which is the concentration of the product under test which inhibits by 50% the contraction due to the K^+ ions.

[1] = system: disturbances of the cardiac rhythm (aconitine); assay: Anti-arrhythmic activity in the rat (aconitine-induced cardiac rhythm disturbances); format: in vivo
Description: Male rats weighing 300-350 g anesthetized intraperitoneally with 1.20 g/kg of urethane were tracheotomized and subjected to artificial respiration (40-50 breaths of 3 ml/minute). Needles were implanted subcutaneously to record the eletrocardiogram of the rats on the derivation signal DII. The products under test were administered intravenously or orally. Five minutes after the administration of the product intravenously or 1 hour after administration orally, the jugular vein of the rats was perfused with 10 μg/min. of an aconitine solution and the time was noted of the appearance of disturbances of the cardiac rhythm (10 μg of aconitine corresponding to the perfusion of a volume of 0.2 ml of solution. The results were expressed as a percentage of the extension of the time of appearance of the cardiac rhythm disturbances as compared to controls and as a function of the dose of the product under test.

[2] = IV, 0.5 mg/kg, aconitine five minutes after administration
[3] = oral, 10 mg/kg, aconitine 1 hour after administration
[4] = IV, 2.5 mg/kg, aconitine five minutes after administration

SMILES	LD0 (maximum dose which does not cause any mortality in 8 days) (mice) [mg/kg]	IC50 (Caudal arteries of rats) [nM]	% extension of time of appearance of cardiac rhythm disturbances [1, 2] [%]	also measured
CC(C)(C)NCC(O)COc1ccccc1C(=O)CCc1cccc2[nH]ccc12 (stereo not shown) [Example 1, (E) butenedioate (1,2) of 1-[2-[3-(1,1-dimethylethylamino)-2-hydroxypropoxy]-phenyl]-3-(1H-indol-4-yl)-1-propanone]	100	400	28	% extension of time of appearance of cardiac rhythm disturbances ([1]; oral, 5 mg/kg, aconitine 1 hour after administration): 41%; % extension of time of appearance of cardiac rhythm disturbances [1, 3]: 39%; % extension of time of appearance of cardiac rhythm disturbances ([1]; oral, 25 mg/kg, aconitine 1 hour after administration): 142%
CCCNCC(O)COc1ccccc1C(=O)CCc1cccc2[nH]ccc12 (stereo not shown) [Example 2, (E) butenedioate (1,2) 1-[2-[2-hydroxy-3-propylamino-propoxy]-phenyl]-3-(1H-indol-4-yl)-1-propanone]	100	3800	–	% extension of time of appearance of cardiac rhythm disturbances ([1]; IV, 1 mg/kg, aconitine five minutes after administration): 32%
CC(C)(C)NCC(O)COc1ccccc1C(=O)CCc1cccc2c1CC(=O)N2 (stereo not shown) [Example 5, 1,3-dihydro-4-[3-[2-[3-(1,1-dimethylethylamino)-2-hydroxypropoxy]-phenyl]-3-oxo-propyl]-2H-indol-2-one]	> 400	–	66	% extension of time of appearance of cardiac rhythm disturbances [1, 3]: 47%
CCCNCC(O)COc1ccccc1C(=O)CCc1cccc2c1CC(=O)N2 (stereo not shown) [Example 6, 1,3-dihydro-4-[3-oxo-3-[2-(2-hydroxy-3-propylamino-propoxy)-phenyl]-propyl]-2H-indol-2-one]	100	3600	–	% extension of time of appearance of cardiac rhythm disturbances ([1]; IV, 0.25 mg/kg, aconitine five minutes after administration): 31%
CC(C)(C)NCC(O)COc1ccccc1CCCc1cccc2[nH]ccc12 (stereo not shown) [Example 7, 1-(1,1-dimethylethylamino)-3-[2-[3-(1H-indol-4-yl)-propyl]-phenoxy]-2-propanol]	> 400	640	–	% extension of time of appearance of cardiac rhythm disturbances [1, 4]: 41%
CCCNCC(O)COc1ccccc1CCCc1cccc2[nH]ccc12 (stereo not shown) [Example 8, 1-[2-[3-(1H-indol-4-yl)-propyl]-phenoxy]-3-propylamino-2-propanol]	> 400	1400	–	% extension of time of appearance of cardiac rhythm disturbances [1, 4]: 25.5%
CCCNCC(O)COc1ccccc1CCCc1cccc2c1CC(=O)N2 (stereo not shown) [Example 9, 1,3-dihydro-4-[3-[2-[2-hydroxy-3-propylamino-propoxy]-phenyl]-propyl]-2H-indol-2-one]	–	–	45	–
